Laboratory results: US8324194B2, “Combination therapy for the treatment of cancer” (Incyte Corporation, priority 2005, dated 2012)

What was measured:
[1] = system: MCF-7 human breast cancer xenografts; assay: Growth of subcutaneous MCF-7 breast cancer xenograft in mice; assay type: in vivo; details: MCF-7 xenograft; for inhibited tumor cell growth over the control group: nu/nu mice, fulvestrant 5 mg SC once per week for four weeks, mean tumor volume vs control group (a)
Description: Human breast cancer cell line MCF-7 was obtained from American Type Tissue Culture Collection (ATCC, Manassas, Va.). Cells were routinely maintained in media recommended by the ATCC with slight modifications. Cells were kept at 37° C. in a humidified incubator supplied with 5% CO2. MCF-7 cells were kept in Eagle's minimal essential medium (ATCC) supplemented with 10% FBS and 0.01 mg/ml bovine insulin.
Animal studies were performed under Animal Welfare Regulation Guidelines in a facility accredited by the Association for the Assessment and Accreditation of Laboratory Animal Care (AAALAC). Balb/c or CD-1 nu/nu mice (Charles River, Wilmington, Mass.) were injected subcutaneously with logarithmically growing cells suspended in either serum free culture media, or a 1:1 mixture media and Matrigel™ (BD Biosciences). The tumor models required implantation (on the same day or one day prior to cell inoculation) of estradiol pellets (17-β estradiol, 0.72 mg/pellet, 60 day release; Innovative Research of American, Sarasota, Fla.). The time in days after injection of the tumor cells into the mice was measured as “days post-inoculation”.
Subcutaneous implantation of osmotic pumps (obtained from Alzet, Cupertino, Calif.) was performed under isofluorane anesthesia following manufacturer's protocol. Subcutaneous pumps (hereinafter “SC pumps”) were used to deliver a solution of Compound 1, or its inert solvent. Fulvestrant, or its inert solvent, was delivered by subcutaneous injection on the dorsal flanks of the animals. Treatment was usually initiated when mean tumor volumes were approximately 150 mm^3 at the beginning of treatment. Ten test animals were included in each treatment group, (a)-(d).
(§1) Tumor size was measured and used to calculate tumor volume for a period of time following the injection of the tumor cells into the mice. Tumor size was measured by using a caliper to measure the length (1) and width (w) of tumors to calculate an approximate volume ((l×w^2)/2). These tumor size measurements and tumor volume calculations were recorded relative to the number of days post-inoculation of the mice with the tumor cells. The frequency of the tumor size measurements varied depending on how quickly the tumors grew in size, with more frequent measurements being taken when the tumors grew quickly. Mean tumor volume was calculated based on the tumor volumes for the ten test animals in each treatment group.
(§2) Treatment group (a) was the control group of test animals. […] Tumor size was measured for each test animal as described above and recorded as a function of the number of days post-inoculation of the mice with the MCF-7 breast cancer cells. Mean tumor volume was then calculated for treatment group (a) and plotted against the number of days post-inoculation as shown in FIG. 1. […]

[2] = system: BT-474 human breast cancer xenografts; assay: Growth of subcutaneous BT-474 breast cancer xenograft in mice; assay type: in vivo; details: BT-474 xenograft; for inhibited tumor cell growth over the control group: nu/nu mice, Compound 1 60 mg/kg/day SC pump for 14 days, fulvestrant 5 mg SC once per week for four weeks, mean tumor volume vs control group (a); for tumor growth delay (TGD, T-C) to 500 cubic mm by linear regression analysis of tumor growth rate: Compound 1 60 mg/kg/day for 14 days, fulvestrant 5 mg weekly x4, projected time
Description: Human breast cancer cell line BT-474 was obtained from American Type Tissue Culture Collection (ATCC, Manassas, Va.). Cells were routinely maintained in media recommended by the ATCC with slight modifications. Cells were kept at 37° C. in a humidified incubator supplied with 5% CO2. BT-474 cells were grown in RPMI 1640 (Invitrogen) supplemented with 10% fetal bovine serum (FBS), 0.01 mg/ml bovine insulin, 10 mM HEPES and 0.1 mM non-essential amino acids.
Animal studies were performed under Animal Welfare Regulation Guidelines in a facility accredited by the Association for the Assessment and Accreditation of Laboratory Animal Care (AAALAC). Balb/c or CD-1 nu/nu mice (Charles River, Wilmington, Mass.) were injected subcutaneously with logarithmically growing cells suspended in either serum free culture media, or a 1:1 mixture media and Matrigel™ (BD Biosciences). The tumor models required implantation (on the same day or one day prior to cell inoculation) of estradiol pellets (17-βestradiol, 0.72 mg/pellet, 60 day release; Innovative Research of American, Sarasota, Fla.). The time in days after injection of the tumor cells into the mice was measured as “days post-inoculation”.
Subcutaneous implantation of osmotic pumps (obtained from Alzet, Cupertino, Calif.) was performed under isofluorane anesthesia following manufacturer's protocol. Subcutaneous pumps were used to deliver a solution of Compound 1, or its inert solvent. Fulvestrant, or its inert solvent, was delivered by subcutaneous injection on the dorsal flanks of the animals. […] Treatment was usually initiated when mean tumor volumes were approximately 150 mm^3 at the beginning of treatment. Ten test animals were included in each Treatment group, (a)-(d).
as §1, with “(l)” for “(1)”, “The frequency of the tumor size measurements varied depending on how quickly the tumors grew in size, with more frequent measurements being taken when the tumors grew quickly.” left out
as §2, with “BT-474” for “MCF-7”, “2.” for “1.”

[3] = Compound 1 60 mg/kg/day SC pump for 14 days

| SMILES | inhibited tumor cell growth over the control group [1, 3] | tumor growth delay (TGD, T-C) to 1000 cubic mm, real, not calculated [1, 3] | inhibited tumor cell growth over the control group [2] | tumor growth delay (TGD, T-C) to 500 cubic mm by linear regression analysis of tumor growth rate [2] | calculated tumor growth delay (TGD, T-C) to 1000 cubic mm by linear regression analysis of tumor growth curves ([1]; fulvestrant 5 mg SC weekly x4, alone or with Compound 1 60 mg/kg/day for 14 days, projected time) |
| --- | --- | --- | --- | --- | --- |
| COC(=O)N1CC2(CC2)C[C@H](C(=O)NO)[C@H]1C(=O)N1CCN(c2ccccc2)CC1 [Compound 1, methyl (6S,7S)-7-[(hydroxyamino)carbonyl]-6-[(4-phenylpiperazin-1-yl)carbonyl]-5-azaspiro[2.5]octane-5-carboxylate] | 46% | 32 days | 33% | 19 days | – |
| C[C@]12CC[C@@H]3c4ccc(O)cc4C[C@@H](CCCCCCCCC[S+]([O-])CCCC(F)(F)C(F)(F)F)[C@H]3[C@@H]1CC[C@@H]2O (some centres unmarked) [fulvestrant] | 52% | – | 46% | 54 days | 63 days |
